We go through three compounds from patent US20030114512A1, “Compounds with 5-ht2 and 5-ht1a agonist activity for treating glaucoma” (priority 2002, published 2003).

For assay [1], the target named is T1, 5-HT2 receptor (Rattus norvegicus, UniProt P14842).
T1 construct: A7r5 rat vascular smooth muscle cells; endogenous in cells; host or cells: A7r5 rat vascular smooth muscle cells
In words: 5-HT2 functional assay: phosphoinositide (PI) turnover. As to conditions: for Emax: A7r5 cells, relative to 5-HT set at 100%, read-out: Efficacy (Emax, %) 5-HT2 functional. Type of assay: cell-based. On the procedure:
5-HT2 Functional Assay: Phosphoinositide (PI) Turnover Assay
The relative agonist activity of serotonergic compounds at the 5-HT2 receptor can be determined in vitro using the ability of the compounds to stimulate the production of [^3H]inositol phosphates in [^3H]myo-inositol-labeled A7r5 rat vascular smooth muscle cells by their ability to activate the enzyme phospholipase C. These cells are grown in culture plates, maintained in a humidified atmosphere of 5% CO2 and 95% air and fed semi-weekly with Dulbecco's modified Eagle medium (DMEM) containing 4.5 g/l glucose and supplemented with 2 mM glutamine, 10 μg/ml gentamicin, and 10% fetal bovine serum. For the purpose of conducting the phosphoinositide (PI) turnover experiments, the A7r5 cells are cultured in 24-well plates as previously [J. Pharmacol. Expt. Ther., 286, 411 (1998)]. Confluent cells are exposed for 24-30 hrs to 1.5 μCi [^3H]-myo-inositol (18.3 Ci/mmol) in 0.5 ml of serum-free medium. Cells are then rinsed once with DMEM/F-12 containing 10 mM LiCl prior to incubation with the test agent (or solvent as the control) in 1.0 ml of the same medium for 1 hr at 37° C., after which the medium is aspirated and 1 ml of cold 0.1 M formic acid added to stop the reaction. The chromatographic separation of [^3H]-inositol phosphates ([^3H]-IPs) on an AG-1-X8 column is performed as previously described [J. Pharmacol. Expt. Ther. 286, 411 (1998)] with sequential washes with H2O and 50 mM ammonium formate, followed by elution of the total [^3H]-IPs fraction with 1.2 M ammonium formate containing 0.1 M formic acid. The eluate (4 ml) is collected, mixed with 15 ml scintillation fluid, and the total [^3H]-IPs determined by scintillation counting on a beta counter. Concentration-response data are analyzed by the sigmoidal fit function of the Origin Scientific Graphics software (Microcal Software, Northampton, Mass.) to determine agonist potency (EC50 value) and efficacy (Emax). Serotonin (5-HT) is used as a positive control (standard) agonist compound and the efficacy of test compounds is compared to that of 5-HT (set at 100%). The concentration of the compound needed to stimulate the production of [^3H]-IPs by 50% of the maximum response is termed the EC50 value.

The target in assay [2] is T2, human cloned 5-HT1A receptors (Homo sapiens, UniProt P08908).
T2 construct: purchased NEN (manufactured by Biosignal, Inc., Montreal, Canada); host or cells: CHO cells (membranes)
T2 sequence (P08908 1-422): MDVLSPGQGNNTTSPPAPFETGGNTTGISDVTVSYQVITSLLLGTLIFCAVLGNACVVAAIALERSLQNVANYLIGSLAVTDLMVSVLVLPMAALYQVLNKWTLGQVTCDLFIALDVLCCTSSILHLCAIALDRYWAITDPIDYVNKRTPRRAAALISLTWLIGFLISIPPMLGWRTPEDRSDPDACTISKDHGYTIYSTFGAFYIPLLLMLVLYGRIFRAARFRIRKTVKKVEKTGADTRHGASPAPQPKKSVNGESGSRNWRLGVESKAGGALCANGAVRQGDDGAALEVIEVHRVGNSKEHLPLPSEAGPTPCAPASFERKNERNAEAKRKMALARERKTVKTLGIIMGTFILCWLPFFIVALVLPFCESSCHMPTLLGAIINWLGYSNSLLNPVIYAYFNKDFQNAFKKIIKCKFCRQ
Nature of the assay: 5-HT1A receptor binding assay ([3H]8-OH-DPAT). On the procedure:
5-HT1A Receptor Binding Assay
5-HT1A binding studies were performed with human cloned receptors expressed in Chinese hamster ovary (CHO) cells using (^3H)8-OH DPAT as the ligand. Membranes from Chinese hamster ovary cells (CHO) expressing cloned 5-HT1A receptors (manufactured for NEN by Biosignal, Inc., Montreal, Canada) were homogenized in approximately 40 volumes of 50 mM Tris pH 7.4 for 5 sec. Drug dilutions were made using a Beckman Biomek 2000 robot (Beckman Instruments, Fullerton, Calif.). Incubations were conducted with membrane prep, test compounds, and 0.25 nM [^3H]8-OH-DPAT (NEN, Boston, Mass.) in the same buffer at 27° C. for 1 h. Assays were terminated by rapid vacuum filtration over Whatman GF/B glass fiber filters pre-soaked in 0.3% polyethyleneimine. Bound radioactivity was measured using liquid scintillation spectrometry. Data were analyzed using non-linear curve fitting programs (Sharif et al., J. Pharmac. Pharmacol. 51: 685-694, 1999).
Ligand binding studies can also be run using membrane preparations from calf and rat brain (local source) and human cortex membranes. Specific brain regions were dissected out, homogenized in 10 volumes of 0.32 M sucrose and centrifuged for 10 min at 700×g. The resulting supernatant was centrifuged at 43,500×g for 10 min and the pellet re-suspended in 50 mM Tris-HCl (pH 7.7, 25° C.) using a 10 sec polytron treatment. Aliquots were stored at −140° C. To remove endogenous serotonin, the preps were incubated at 37° C. for 10 min prior to the experiment. Assay incubations were terminated by rapid filtration over Whatman GF/C filters using a Brandel cell harvester. Ki values were calculated using the Cheng-Prusoff equation (De Vry et al., J. Pharm. Exper. Ther. 284:1082-1094, 1998.)

Like-named read-outs stand apart in the source and are kept apart here.

T1 sequence (P14842 whole entry): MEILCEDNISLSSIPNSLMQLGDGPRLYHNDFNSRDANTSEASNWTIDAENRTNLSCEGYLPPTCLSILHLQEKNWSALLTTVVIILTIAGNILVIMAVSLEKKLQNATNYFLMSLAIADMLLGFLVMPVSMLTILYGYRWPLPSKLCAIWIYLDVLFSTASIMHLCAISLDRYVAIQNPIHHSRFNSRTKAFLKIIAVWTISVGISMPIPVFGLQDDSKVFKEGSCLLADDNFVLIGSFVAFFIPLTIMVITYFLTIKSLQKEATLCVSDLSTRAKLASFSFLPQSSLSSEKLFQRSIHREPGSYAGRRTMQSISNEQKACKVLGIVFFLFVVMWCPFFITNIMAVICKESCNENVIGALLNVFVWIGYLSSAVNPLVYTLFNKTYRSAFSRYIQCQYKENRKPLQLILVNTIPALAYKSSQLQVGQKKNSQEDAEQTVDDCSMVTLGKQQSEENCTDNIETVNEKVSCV

For the compound `CC(N)Cn1ccc2ccc(O)cc21.O=C(O)/C=C/C(=O)O` (centres unmarked) [1-(2-aminopropyl) 6-hydroxyindole fumarate], the Emax in assay [1] came to 86%. Besides, the EC50 in assay [1] ([3H]inositol phosphates, A7r5 rat vascular smooth muscle cells, read-out: EC50, nM (SEM) 5-HT2 functional) was determined as 577 nM. For the same compound, the IC50 in assay [2] ([3H]8-OH-DPAT, CHO cell membranes, read-out: IC50, nM (SEM) 5-HT1A receptor binding) came out at 111 nM.
With `CC(N)Cc1c[nH]c2ccc(O)cc12.O=C(O)/C=C\C(=O)O` (stereo not drawn) [α-Methyl 5-hydroxytryptamine maleate, 3-(2-aminopropyl)-1H-indol-5-ol], in assay [1], the Emax came out at 104%. Moreover, in assay [2], the half-maximal inhibitory concentration (IC50) was 22.5 nM.
Consider `COc1ccc2[nH]cc(CC(C)N)c2c1.O=C(O)/C=C/C(=O)O` (stereo not drawn) [α-Methyl 5-methoxytryptamine fumarate], for which, in assay [1], the EC50 worked out at 206 nM and the maximal response (Emax) was determined as 81%. This compound also had an IC50 in assay [2] of 26.5 nM.
